Laboratory results as given in patent publication US20220362254A1, “METHODS FOR REPROGRAMMING CANCER CELLS” (Thomas Jefferson University, priority 2019, published 2022).

Assays:
[1] = tested on: HH, HUT78, Jurkat E6.1 and CCRF-HSB-2 cells; assay: Cell viability screen of TCL cells (flow cytometry with Sytox Green); type: cell-based, human; details: HUT78, Jurkat E6.1, CCRF-HSB-2, with and without 1 μM EPZ 24 hrs, then 10 days
Experimental: (§1) Sezary syndrome (SS) cells HH (FIG. 12A) and HUT78 (FIG. 12B), and T-cell acute lymphoblastic leukemia (T-ALL) cells Jurkat E6.1 (FIG. 12C) and CCRF-HSB-2 (FIG. 12D) were grown with and without 1 μM EPZ for 24 hrs. Indicated small molecule compounds were added in indicated concentrations and cells were grown for an additional 10 days.
To test the idea that restoring the ability of cells to de-condense nascent chromatin may enable reprogramming of TCLs, a two-step induction was devised: Cells were first treated with the inhibitors of the EZH1/2 HMTs, and then induced with small molecule ligands known to activate specific TFs. […] A library of small molecules was compiled that included ligands for nuclear hormone receptors, cytokines, ligands for GPCRs, and small molecules that are used to reprogram mature cells into pluripotent cells (FIG. 11). Since different ligands may induce reprogramming of leukemic cells into different lineages, it was not possible to use specific differentiation markers at initial stages of these screens, and therefore cell viability was used as a readout for the initial screens. The earliest effects on cell viability were observed after 5 days of treatment, and therefore screens for cell viability (flow cytometry with Sytox green) were performed at days 8-11. […]

[2] = tested on: AML cell lines THP-1, K562 and KG-1a; assay: Cell viability of AML cell lines (flow cytometry with Sytox Green); type: cell-based, human; details: THP-1, K562, KG-1a; performed as in FIG. 12
Experimental: as §1
The assays were performed as described in FIG. 12.
Similar experiments were performed with the AML cell lines THP-1, K562 and KG-1a.

[3] = tested on: MEF2; assay: CAA: binding of MEF2 to nascent chromatin in CCRF-HSB-2 cells; type: cell-based, human; details: 5 μM ISX9 6 hr, with or without 0.5 μM EPZ pre-treatment
Experimental: (§2) FIGS. 15A-15C illustrate the effect of EPZ and small molecule ligand treatment on TF binding. […] Cells were immunostained with antibodies to LXRa (left), and GR (right). Nuclei stained by DAPI are shown in the lower panel. […] In FIG. 15C, T-ALL CCRF-HSB-2 cells were untreated or treated for 6 hr with 5 μM of ISX9, or pre-treated with 0.5 μM EPZ and then treated for 6 hr with 5 μM of ISX9. In FIG. 15B and FIG. 15C, DNA was labeled with EdU for 15 min. In FIG. 15B, CAA was performed with antibodies to H3K27me3 (left), LXRa (middle), and GR (right). In FIG. 15C, with antibody to MEF-2. PLA signals are shown in the lower panel. The schemes above show the state of condensation of nascent chromatin.
(§3) Chromatin assembly assay: Cells were grown on chamber slides, pulse-labeled with 5 μM EdU and fixed at room temperature with 4% formaldehyde in PBS for 15 min, washed with PBS, and permeabilized with 0.3% Triton for 15 min. Cells were subjected to Click-iT reaction with biotin-azide for 30 min. […] The results of CAA experiments shown in FIG. 1A were quantified by counting the number of PLA signals per EdU-labeled nuclei in 50 cells of each of the three independent experiments. The nature of the results in the rest of the figures alleviated the need to quantify the results of these assays.

[4] = tested on: THP-1 Luc+ cells; assay: THP-1 Luc+ xenograft AML model, bioluminescence; type: in vivo; details: NRG mice, THP-1 Luc+ 1×10^6/mouse; 30 days post injection
Source text: NRG were mice injected with THP-1 Luc+ cells, an especially aggressive AML line (1×10^6/mouse). 14 days post-injection, mice were imaged and left untreated (Controls), treated with EPZ alone, Dexa alone and ISX9 alone for 16 days, or pre-treated (2 days) with EPZ and co-treated with Dexa and EPZ (Dexa+EPZ) or with ISX9 and EPZ (ISX9+EPZ) for 14 additional days.

[5] = tested on: all tested leukemias; assay: In vitro assays with cultured leukemic cells of various leukemia types; type: cell-based; details: cell lines of various leukemia types
Experimental: Leukemic cells from patients can be established in short-term culture for about 10 days. During this time, these cells are screened for the best possible reprogramming agent, which causes reprogramming (e.g. differentiation), loss of cell viability and apoptosis. […] These assays include cell viability, apoptosis induction, and examining cell differentiation markers. Thus, within 7-10 days, the most efficient molecules are determined, which induce reprogramming of leukemic cells, which leads to inhibition of cell viability and induction of apoptosis in individual patients. Indeed, similar studies using a number of different cell lines of various leukemia types have seen differences in responses to various reprogramming agents (FIG. 14).

[6] = tested on: HL-60 cells; details: an APL cell line; cited from earlier work
[7] = tested on: H3K27me3; assay: CAA: H3K27me3 on nascent chromatin of TCL cells (HUT78); type: cell-based, human
Experimental: FIG. 10B: HUT78 cells were induced with 0.2 μM of RXR for the indicated times. Cells were labeled with EdU for 15 min, and CAA was performed between Biotin (EdU) and H3K27me3 antibody. PLA only is shown in the lower panel.
FIGS. 15A-15C illustrate the effect of EPZ and small molecule ligand treatment on TF binding. […] Cells were immunostained with antibodies to LXRa (left), and GR (right). Nuclei stained by DAPI are shown in the lower panel. […] In FIG. 15C, T-ALL CCRF-HSB-2 cells were untreated or treated for 6 hr with 5 μM of ISX9, or pre-treated with 0.5 μM EPZ and then treated for 6 hr with 5 μM of ISX9. In FIG. 15B and FIG. 15C, DNA was labeled with EdU for 15 min. […]
Chromatin assembly assay: Cells were grown on chamber slides, pulse-labeled with 5 μM EdU and fixed at room temperature with 4% formaldehyde in PBS for 15 min, washed with PBS, and permeabilized with 0.3% Triton for 15 min. […] The results of CAA experiments shown in FIG. 1A were quantified by counting the number of PLA signals per EdU-labeled nuclei in 50 cells of each of the three independent experiments. The nature of the results in the rest of the figures alleviated the need to quantify the results of these assays.
New approaches to study the fate of chromatic-associated proteins following DNA replication were developed. […] Reliable pulse-chase EdU labeling in cells can be detected from 3-5 min to several hours. […]

[8] = tested on: GR target genes; assay: qRT-PCR of differentiation-associated (GR target) genes in THP-1, SEM and HH cells; type: cell-based, human; details: 24 hr
Experimental: Graphs show induction of transcription of GR target genes. […] Graphs show induction of transcription of GR target genes. FIG. 17C The T-ALL HH cells were untreated (Untr) or treated with 1 μM EPZ for 24 hr. […] Bottom graph, cells were then treated with 1 μM of ISX-9 for 72 hr or with combinations of EPZ and ISX9. Analysis by qRT-PCR.
Gene expression analysis by RT-qPCR: Total RNA was isolated directly from freshly collected hESCs with TRIzol and for mESCs with High Pure RNA Isolation Kit. cDNA was synthesized by using 1 μg total RNA in a 20 μL reaction with Superscript III and oligo (dT) for hESC or random hexamers (Life Tech) for mECS. After reverse transcription was complete, one microliter of RNase H was added to each reaction tube, and the tubes were incubated for 20 min at 37° C. before proceeding to PCR. Real-time PCR was carried out on a 7500 Real-Time PCR System using the 2× Power SYBR green PCR master mix. GAPDH was used as an internal control. All PCR products were checked by running an agarose gel for the first time and by doing dissociation assay every time to exclude the possibility of multiple products. PCR analyses were conducted in triplicate for each sample.
Graphs show induction of transcription of GR target genes. […] Graphs show induction of transcription of GR target genes. […]

[9] = target: EZH2 (Homo sapiens, UniProt Q15910); details: also inhibits other methyltransferases; cited from earlier work
[10] = tested on: H3K27me3; assay: Chromatin assembly assay (CAA): H3K27me3 on nascent DNA of CD34+ HPCs; type: cell-based, human; details: CD34+ HPCs exposed to GSKJ4 during 12 hr induction; EdU 15 min, chased to 1 hr
Source text: (§4) FIGS. 5A-5B illustrate that fast accumulation of post-replicative H3K27me3 leads to decreased recruitment of lineage-determining TFs to DNA. In FIG. 5A, CD34^+ cells were induced toward myeloid differentiation with G-CSF (left) or M-CSF (middle), or erythroid differentiation with EPO (right) for 12 hr. During the induction period cells were left untreated (upper panels) or treated with the GSKJ4 inhibitor of the H3K27me3 de-methylases (KDMs) UTX and JMJD3 (lower panels). DNA was pulse-labeled with EdU for 15 min and chased to 1 hr. CAA was performed between nascent DNA (biotin) and H3K27me3 (left columns) or (in the right columns) C/EBPa (left), PU.1 (middle) or GATA-1 (right). […] In FIG. 5B, quantification of the results of CAA experiments was determined by counting the number of PLA signals per EdU-labeled nuclei in 50 cells/each of the three independent experiments.
(§5) Chromatin assembly assay: Cells were grown on chamber slides, pulse-labeled with 5 μM EdU and fixed at room temperature with 4% formaldehyde in PBS for 15 min, washed with PBS, and permeabilized with 0.3% Triton for 15 min. […] The results of CAA experiments shown in FIG. 1A were quantified by counting the number of PLA signals per EdU-labeled nuclei in 50 cells of each of the three independent experiments. The nature of the results in the rest of the figures alleviated the need to quantify the results of these assays. […]

[11] = tested on: C/EBPa; assay: CAA: recruitment of C/EBPa to nascent DNA in CD34+ HPCs; type: cell-based, human; details: CD34+ HPCs induced with G-CSF 12 hr
Source text: as §4, §5

[12] = tested on: PU.1; assay: CAA: recruitment of PU.1 to nascent DNA in CD34+ HPCs; type: cell-based, human; details: CD34+ HPCs induced with M-CSF 12 hr
Source text: as §4, §5

[13] = tested on: GATA-1; assay: CAA: recruitment of GATA-1 to nascent DNA in CD34+ HPCs; type: cell-based, human; details: CD34+ HPCs induced with EPO 12 hr
Source text: as §4, §5

[14] = tested on: T-bet; assay: CAA: recruitment of T-bet to nascent DNA in T cells (Th1); type: cell-based; details: Th1 pathway, 10 μM GSKJ4 for 5 hr
Experimental: (§6) FIG. 6 illustrates that fast accumulation of post-replicative H3K27me3 leads to decreased recruitment of lineage-determining TFs to DNA during differentiation of T cells. Naive T cells were primed for 12 hr and stimulated to Th1 (left, middle) or Th2 (right) pathways. Cells were untreated or treated with 10 μM of GSKJ4 for 5 hr, labeled with EdU for 15 min (left) or pulse-labeled for 1 hr (middle and right). CAA was performed with antibodies to H3K27me3 (left), T-bet (middle) and GATA3 (right).
as §3
(§7) New approaches to study the fate of chromatic-associated proteins following DNA replication were developed. […] Cells can be then examined for specificity of interactions (e.g. specific PLA signals are detected only in EdU-labeled nuclei), and by assessing tissue specificity using relevant protein markers. […]

[15] = tested on: GATA3; assay: CAA: recruitment of GATA3 to nascent DNA in T cells (Th2); type: cell-based; details: Th2 pathway, 10 μM GSKJ4 for 5 hr
Experimental: as §6, §3, §7

[16] = tested on: LXRa; assay: Immunostaining of LXRa localisation in HUT78 cells; type: cell-based, human; details: 1 μM GW3965, untreated: mostly in the cytoplasm
Experimental: as §2

[17] = tested on: LXRa; assay: CAA: binding of LXRa to nascent DNA in HUT78 cells; type: cell-based, human; details: 6 hr 1 μM GW3965, no EPZ
Experimental: as §2, §3

EZH2, sequence (Q15910 whole entry): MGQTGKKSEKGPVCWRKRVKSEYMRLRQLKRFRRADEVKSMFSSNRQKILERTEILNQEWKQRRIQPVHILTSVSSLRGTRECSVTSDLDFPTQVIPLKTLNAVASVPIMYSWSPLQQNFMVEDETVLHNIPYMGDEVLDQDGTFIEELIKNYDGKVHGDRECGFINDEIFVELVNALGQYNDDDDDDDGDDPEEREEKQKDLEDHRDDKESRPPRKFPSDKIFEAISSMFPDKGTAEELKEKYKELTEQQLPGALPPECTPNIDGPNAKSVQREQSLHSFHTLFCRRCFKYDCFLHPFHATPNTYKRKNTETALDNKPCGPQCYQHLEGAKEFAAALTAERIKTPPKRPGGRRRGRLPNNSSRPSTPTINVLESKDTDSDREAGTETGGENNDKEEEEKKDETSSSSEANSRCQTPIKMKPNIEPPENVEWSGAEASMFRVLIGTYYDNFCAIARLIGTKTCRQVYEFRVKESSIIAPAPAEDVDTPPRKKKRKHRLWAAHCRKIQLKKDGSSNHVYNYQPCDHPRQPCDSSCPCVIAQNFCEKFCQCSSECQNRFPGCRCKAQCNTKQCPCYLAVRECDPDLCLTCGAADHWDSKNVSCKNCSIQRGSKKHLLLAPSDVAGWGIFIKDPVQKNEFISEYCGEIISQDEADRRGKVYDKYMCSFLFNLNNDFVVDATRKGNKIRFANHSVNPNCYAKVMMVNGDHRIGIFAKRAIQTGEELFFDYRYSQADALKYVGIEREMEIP
EZH2, sequence (O75530 whole entry partner): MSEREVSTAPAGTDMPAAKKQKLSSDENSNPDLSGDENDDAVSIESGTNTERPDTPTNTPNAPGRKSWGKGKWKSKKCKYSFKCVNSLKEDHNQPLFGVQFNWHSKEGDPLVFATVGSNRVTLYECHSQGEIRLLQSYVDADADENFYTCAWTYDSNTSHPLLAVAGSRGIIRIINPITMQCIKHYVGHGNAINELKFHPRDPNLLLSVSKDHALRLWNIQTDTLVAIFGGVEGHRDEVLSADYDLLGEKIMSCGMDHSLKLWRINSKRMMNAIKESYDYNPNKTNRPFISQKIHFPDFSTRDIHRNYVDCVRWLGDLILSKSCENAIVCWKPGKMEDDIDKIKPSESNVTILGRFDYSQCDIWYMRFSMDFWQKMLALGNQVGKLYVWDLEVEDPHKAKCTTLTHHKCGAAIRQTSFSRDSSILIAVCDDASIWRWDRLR
EZH2, sequence (Q15022 whole entry partner): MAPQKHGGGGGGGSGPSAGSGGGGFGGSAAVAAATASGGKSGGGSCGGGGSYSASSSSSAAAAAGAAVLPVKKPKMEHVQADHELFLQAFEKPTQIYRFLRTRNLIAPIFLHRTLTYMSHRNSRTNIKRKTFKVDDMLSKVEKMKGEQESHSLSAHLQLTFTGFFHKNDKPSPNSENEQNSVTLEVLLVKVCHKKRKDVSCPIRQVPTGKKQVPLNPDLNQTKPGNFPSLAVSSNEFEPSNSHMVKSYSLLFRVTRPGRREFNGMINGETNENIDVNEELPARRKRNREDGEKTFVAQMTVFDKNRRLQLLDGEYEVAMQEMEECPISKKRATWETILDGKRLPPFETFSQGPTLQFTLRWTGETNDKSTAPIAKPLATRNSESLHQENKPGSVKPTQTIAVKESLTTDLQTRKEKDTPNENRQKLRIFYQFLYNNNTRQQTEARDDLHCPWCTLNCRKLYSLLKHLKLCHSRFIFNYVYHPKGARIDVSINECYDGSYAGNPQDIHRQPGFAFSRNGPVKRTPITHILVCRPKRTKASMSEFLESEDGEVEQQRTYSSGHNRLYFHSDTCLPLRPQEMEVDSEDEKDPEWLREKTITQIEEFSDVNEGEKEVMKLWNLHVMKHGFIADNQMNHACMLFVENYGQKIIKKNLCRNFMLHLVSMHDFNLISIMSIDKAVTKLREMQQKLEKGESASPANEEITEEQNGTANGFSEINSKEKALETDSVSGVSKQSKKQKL

O=C(NC1CC1)c1cc(-c2cccs2)on1 [ISX-9]
inhibition of cell viability of TCL cells [1]: effective
inhibition of cell viability of AML cell lines [2]: induced inhibition of cell viability in all AML cell lines
binding of activated MEF2 to nascent chromatin [3]: occurs only following de-condensation of chromatin by EPZ
THP-1 cell growth / outgrowth (bioluminescence fold-changes) vs untreated control animals [4]: little effect
efficiency as reprogramming agent across leukemias [5]: efficient in all tested leukemias

CC1=C(/C=C/C(C)=C/C=C/C(C)=C/C(=O)O)C(C)(C)CCC1 [ATRA, all-trans retinoic acid]
terminal differentiation of cells [6]: around 90%

C[C@]12C=CC(=O)C=C1CC[C@@H]1[C@@H]2C(=O)C[C@@]2(C)[C@H]1CC[C@]2(O)C(=O)CO [Prednisone]
level of H3K27me3 on 15 min-labeled nascent DNA ([7]; HUT78 cells, 0.2 μM, through 10 hr of induction): remained unchanged
expression of differentiation-associated genes vs untreated cells [8]: no statistical difference

arsenic trioxide [ATO]
terminal differentiation of cells [6]: around 90%

CC[C@H](C)n1cc(C)c2c(C(=O)NCc3c(C)cc(C)[nH]c3=O)cc(-c3ccc(N4CCNCC4)nc3)cc21 [GSK126]
levels of global and nascent chromatin marked with H3K27me3 ([7]; 24 hr, 0.5-1 μM range, tested by CAA): marked decrease

Nc1nccc2c1ncn2[C@@H]1C=C(CO)[C@@H](O)[C@H]1O [DZNep, 3-deazaneplanocin A]
specificity to EZH2 [9]: not specific to EZH2

CCOC(=O)CCNc1cc(N2CCc3ccccc3CC2)nc(-c2ccccn2)n1 [GSKJ4]
accumulation of H3K27me3 following DNA replication [10]: strongly increased
recruitment of the TF C/EBPa [11]: strongly inhibited
recruitment of the TF PU.1 [12]: strongly inhibited
recruitment of the TF GATA-1 [13]: strongly inhibited
recruitment of T-bet to nascent DNA [14]: inhibition
recruitment of GATA3 to nascent DNA [15]: inhibition

O=C(O)Cc1cccc(OCCCN(Cc2cccc(C(F)(F)F)c2Cl)CC(c2ccccc2)c2ccccc2)c1 [GW3965]
localisation of LXRa after induction with ligand [16]: exclusively nuclear
binding of LXRa to DNA, ligand alone [17]: not able to bind to DNA
